Measured values reported in publication PMC8165744, “Identification of an Alternative Glycyrrhizin Metabolite Causing Liquorice-Induced Pseudohyperaldosteronism and the Development of ELISA System to Detect the Predictive Biomarker” (Frontiers in Pharmacology, 2021).

System: anti-3MGA-mAb
Experiment: competitive ELISA using anti-3MGA-mAb
Assay type: binding
Details: competitive ELISA in aqueous solution, 3MGA calibrated to 100%
Procedure: ELISA System Using anti-3MGA-mAb
An ELISA system to measure the cross-reactivity of compounds 3 and 4 by using 3MGA-HSA-conjugate and anti-3MGA-mAb was used according to the protocol in our previous study ([Ishiuchi et al., 2019]). To measure the concentration of 3 in human serum samples using the system ELISA, 3 was dissolved in normal human serum (Sigma) to prepare standard solutions (16 nM–2.0 µM) and the samples or standard solutions (each 10 µl) and ethanol (40 µl) were well mixed and centrifuged (1.2 × 10^4 × g for 7 min). The supernatant was dried up under nitrogen flow at 40°C overnight, and the residue was dissolved in Can Get Signal® Solution 1 (Toyobo Co., Ltd: Osaka, Japan) (50 µl). […] When the observed values were more than 400 nM, the deproteinized serum samples were further diluted with Can Get Signal® Solution 1 for two or four times and analyzed again to observe values from 15.6 to 400 nM.
FIGURE 4 Development of enzyme-linked immunosorbent assay (ELISA) system to measure concentrations of 3 in human serum samples using anti-18β-glycyrrhetyl-3-O-glucuronide (3MGA)-monoclonal antibody (mAb). […] Standard lines between absorbance and concentrations of compound 3 are shown (D) Accuracy of ELISA system in measuring concentrations of 3 in human serum samples using anti-3MGA-mAb. Human serum samples were deproteinized, and concentration of 3 was measured using ELISA system. […]

CC1(C)[C@@H](OS(=O)(=O)O)CC[C@]2(C)[C@H]3C(=O)C=C4[C@@H]5C[C@@](C)(C(=O)O[C@@H]6O[C@H](C(=O)O)[C@@H](O)[C@H](O)[C@H]6O)CC[C@]5(C)CC[C@@]4(C)[C@]3(C)CC[C@@H]12 [Compound 4, 18β-glycyrrhetyl-3-O-sulfate-30-O-glucuronide]
cross-reactivity to anti-3MGA-mAb: 40%
